How the values were obtained:
Format in all cases: in vivo
Scirpus juncoides = test: Test Example 2: herbicidal activity, application during weed generation in submerged conditions (symbol B); settings: Table 23; application herbicide amount 320 g/ha; grade 0-5 by criteria of Test Example 1
Summary of the method: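 Treatment timing was the one- to two-leaf stage, with diluted emulsifiable compound dropped onto the paddy water (depth 4 cm) over alluvial soil. All three species grew from a mixed sowing in a 25° C. to 30° C. greenhouse. Injury was judged by eye 3 weeks on.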

[1] = test system: Echinochloa crus-galli var. crus-galli; test: Test Example 3: herbicidal effect by foliage application, Wagner pot (symbol H); settings: application herbicide amount 320 g/ha
Summary of the method: (§1)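 The compound, formulated as an emulsion and diluted with water to a predetermined rate, is applied uniformly to leaves of two-week-old seedlings growing in submerged alluvial soil at 25–30 °C. Rice is included. Each plant is assessed 3 weeks later using defined criteria.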

Cyperus difformis = test: Test Example 3: herbicidal effect by foliage application, Wagner pot (symbol E); settings: application herbicide amount 320 g/ha
Summary of the method: as §1

[2] = test system: Echinochloa crus-galli var. crus-galli; test: Test Example 4: herbicidal effect by soil treatment (symbol H)
Summary of the method: (§2)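 Seeds were sown in sterilized diluvial soil, covered with about 1.5 cm of soil, and the soil surface was sprayed with a water-diluted emulsion of the compound at a predetermined rate. Plants grew in a greenhouse at 25° C. to 30° C.; effects were scored visually 3 weeks after application.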

Lolium multiflorum Lam. [3] = test: Test Example 4: herbicidal effect by soil treatment (symbol K)
Summary of the method: as §2

Apera spica-venti = test: Test Example 4: herbicidal effect by soil treatment (symbol L)
Summary of the method: as §2

Galium spurium = test: Test Example 4: herbicidal effect by soil treatment (symbol Q)
Summary of the method: as §2

corn = test: Test Example 4: effect on crop by soil treatment (symbol c)
Summary of the method: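 Seeds were sown in spots on sterilized diluvial soil in a plastic box and covered with about 1.5 cm of soil. Plants were then grown in a greenhouse at 25° C. to 30° C.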

rice = test: Test Example 4: effect on crop by soil treatment (symbol b)
Summary of the method: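 The test used sterilized diluvial soil. Seed was set down in spots and overlaid with about 1.5 cm of soil before growth in a greenhouse kept at 25° C. to 30° C.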

Setaria viridis = test: Test Example 5: herbicidal effect by foliage application, plastic box (symbol G); settings: 320 g/ha, 3 weeks after application
Summary of the method: (§3)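 Seeds were sown in sterilized diluvial soil, covered with about 1.5 cm of soil and grown 14 days in a greenhouse at 25° C. to 30° C. An emulsifiable formulation diluted in water to a set rate was sprayed over foliage, and injury was scored 3 weeks later.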

Avena fatua = test: Test Example 5: herbicidal effect by foliage application, plastic box (symbol I); settings: 320 g/ha, 3 weeks after application
Summary of the method: as §3

Alopecurus myosuroides = test: Test Example 5: herbicidal effect by foliage application, plastic box (symbol J); settings: 320 g/ha, 3 weeks after application
Summary of the method: as §3

Lolium multiflorum Lam. [4] = test: Test Example 5: herbicidal effect by foliage application, plastic box (symbol K); settings: 320 g/ha, 3 weeks after application
Summary of the method: as §3

Stellaria media = test: Test Example 5: herbicidal effect by foliage application, plastic box (symbol P); settings: 320 g/ha, 3 weeks after application
Summary of the method: as §3

Veronica persica = test: Test Example 5: herbicidal effect by foliage application, plastic box (symbol R); settings: 320 g/ha, 3 weeks after application
Summary of the method: as §3

rice plant = test: Test Example 5: effect on crop by foliage application, plastic box (symbol b); settings: 320 g/ha, 3 weeks after application
Summary of the method: (§4)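 Plants were raised from seed in a greenhouse (25° C. to 30° C.) after sowing in a plastic box of sterilized diluvial soil.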

wheat = test: Test Example 5: effect on crop by foliage application, plastic box (symbol e); settings: 320 g/ha, 3 weeks after application
Summary of the method: as §4

[5] = application herbicide amount 320 g/ha

## CCC(=O)CCC1CC(O)=C(c2c(C)cc(C)cc2C)C1=O (stereo not shown) [5-001]
Scirpus juncoides
  Herbicidal effect grade, B: Scirpus juncoides: 0 (Herbicidal ratio of 5% or lower (almost no effect))
[1]
  herbicidal effect on H (Echinochloa crus-galli var. crus-galli), grade 0-5: 2 (Herbicidal ratio of 20% or higher and lower than 40%)
Cyperus difformis
  herbicidal effect on E, grade 0-5: 0 (Herbicidal ratio of 5% or lower (almost no effect))
[2]; [5]
  H: Echinochloa crus-galli var. crus-galli, herbicidal effect grade: 1 (Herbicidal ratio of 5% or higher and lower than 20%)
Lolium multiflorum Lam. [3]; [5]
  K: Lolium multiflorum Lam., herbicidal effect grade: 5 (Herbicidal ratio of 90% or more (almost completely withered))
Apera spica-venti; [5]
  L: Apera spica-venti, herbicidal effect grade: 5 (Herbicidal ratio of 90% or more (almost completely withered))
Galium spurium; [5]
  Q: Galium spurium, herbicidal effect grade: 0 (Herbicidal ratio of 5% or lower (almost no effect))
corn; [5]
  c: corn, effect on crop grade: 0 (Herbicidal ratio of 5% or lower (almost no effect))
rice; [5]
  b: directly sowed rice plant, effect on crop grade: 5 (Herbicidal ratio of 90% or more (almost completely withered))
Setaria viridis
  G: Setaria viridis, herbicidal effect grade: 3 (Herbicidal ratio of 40% or higher and lower than 70%)
Avena fatua
  I: Avena fatua, herbicidal effect grade: 4 (Herbicidal ratio of 70% or higher and lower than 90%)
Alopecurus myosuroides
  J: Alopecurus myosuroides, herbicidal effect grade: 5 (Herbicidal ratio of 90% or more (almost completely withered))
Lolium multiflorum Lam. [4]
  K: Lolium multiflorum Lam., herbicidal effect grade: 5 (Herbicidal ratio of 90% or more (almost completely withered))
Stellaria media
  P: Stellaria media, herbicidal effect grade: 0 (Herbicidal ratio of 5% or lower (almost no effect))
Veronica persica
  R: Veronica persica, herbicidal effect grade: 0 (Herbicidal ratio of 5% or lower (almost no effect))
Rice plant
  b: directly sowed rice plant, effect on crop grade: 4 (Herbicidal ratio of 70% or higher and lower than 90%)
wheat
  e: wheat, effect on crop grade: 0 (Herbicidal ratio of 5% or lower (almost no effect))

## CON=C(C)CC1CC(OC(=O)C(C)(C)c2ccc(Cl)cc2)=C(c2c(C)cc(C)cc2C)C1=O (stereo not shown) [1-148]
Scirpus juncoides
  Herbicidal effect grade, B: Scirpus juncoides: 4 (Herbicidal ratio of 70% or higher and lower than 90%)
[1]
  herbicidal effect on H (Echinochloa crus-galli var. crus-galli), grade 0-5: 5 (Herbicidal ratio of 90% or more (almost completely withered))
Cyperus difformis
  herbicidal effect on E, grade 0-5: 4 (Herbicidal ratio of 70% or higher and lower than 90%)
[2]; 320 g/ha
  H: Echinochloa crus-galli var. crus-galli, herbicidal effect grade: 5 (Herbicidal ratio of 90% or more (almost completely withered))
Lolium multiflorum Lam. [3]; 320 g/ha
  K: Lolium multiflorum Lam., herbicidal effect grade: 5 (Herbicidal ratio of 90% or more (almost completely withered))
Apera spica-venti; 320 g/ha
  L: Apera spica-venti, herbicidal effect grade: 5 (Herbicidal ratio of 90% or more (almost completely withered))
Galium spurium; 320 g/ha
  Q: Galium spurium, herbicidal effect grade: 0 (Herbicidal ratio of 5% or lower (almost no effect))
corn; 320 g/ha
  c: corn, effect grade on crop: 3 (Herbicidal ratio of 40% or higher and lower than 70%)
rice; 320 g/ha
  b: directly sowed rice plant, effect grade on crop: 5 (Herbicidal ratio of 90% or more (almost completely withered))
Setaria viridis
  G: Setaria viridis, herbicidal effect (criteria 0-5): 5 (Herbicidal ratio of 90% or more (almost completely withered))
Avena fatua
  I: Avena fatua, herbicidal effect (criteria 0-5): 5 (Herbicidal ratio of 90% or more (almost completely withered))
Alopecurus myosuroides
  J: Alopecurus myosuroides, herbicidal effect (criteria 0-5): 5 (Herbicidal ratio of 90% or more (almost completely withered))
Lolium multiflorum Lam. [4]
  K: Lolium multiflorum Lam., herbicidal effect (criteria 0-5): 5 (Herbicidal ratio of 90% or more (almost completely withered))
Stellaria media
  P: Stellaria media, herbicidal effect (criteria 0-5): 3 (Herbicidal ratio of 40% or higher and lower than 70%)
Veronica persica
  R: Veronica persica, herbicidal effect (criteria 0-5): 3 (Herbicidal ratio of 40% or higher and lower than 70%)
Rice plant
  b: directly sowed rice plant, effect on crop (criteria 0-5): 5 (Herbicidal ratio of 90% or more (almost completely withered))
wheat
  e: wheat, effect on crop (criteria 0-5): 5 (Herbicidal ratio of 90% or more (almost completely withered))

Source: US11000033B2, “Ketone or oxime compound, and herbicide” (NISSAN CHEMICAL CORPORATION, priority 2014, dated 2021)
